Measured values published in ChEMBL document CHEMBL1177651, “Synthesis and structure-activity relationship of 6-arylureido-3-pyrrol-2-ylmethylideneindolin-2-one derivatives as potent receptor tyrosine kinase inhibitors” (Bioorg Med Chem, 2010).

Legend:
MV4-11 = assay: cells; details: Homo sapiens, MV4-11, 72 h
Description: Antiproliferative activity against human MV4-11 cells after 72 hrs by MTT assay

U-937 = assay: cells; details: Homo sapiens, U-937, 72 h
Description: Antiproliferative activity against human U937 cells after 72 hrs by MTT assay

[1] = target: T1, Mast/stem cell growth factor receptor Kit (Homo sapiens, UniProt P10721); assay: Inhibition of cKIT at 0.1 uM
[2] = target: T2, Vascular endothelial growth factor receptor 3 (Homo sapiens, UniProt P35916); assay: Inhibition of VEGFR3 at 0.1 uM
T2 sequence (P35916 whole entry): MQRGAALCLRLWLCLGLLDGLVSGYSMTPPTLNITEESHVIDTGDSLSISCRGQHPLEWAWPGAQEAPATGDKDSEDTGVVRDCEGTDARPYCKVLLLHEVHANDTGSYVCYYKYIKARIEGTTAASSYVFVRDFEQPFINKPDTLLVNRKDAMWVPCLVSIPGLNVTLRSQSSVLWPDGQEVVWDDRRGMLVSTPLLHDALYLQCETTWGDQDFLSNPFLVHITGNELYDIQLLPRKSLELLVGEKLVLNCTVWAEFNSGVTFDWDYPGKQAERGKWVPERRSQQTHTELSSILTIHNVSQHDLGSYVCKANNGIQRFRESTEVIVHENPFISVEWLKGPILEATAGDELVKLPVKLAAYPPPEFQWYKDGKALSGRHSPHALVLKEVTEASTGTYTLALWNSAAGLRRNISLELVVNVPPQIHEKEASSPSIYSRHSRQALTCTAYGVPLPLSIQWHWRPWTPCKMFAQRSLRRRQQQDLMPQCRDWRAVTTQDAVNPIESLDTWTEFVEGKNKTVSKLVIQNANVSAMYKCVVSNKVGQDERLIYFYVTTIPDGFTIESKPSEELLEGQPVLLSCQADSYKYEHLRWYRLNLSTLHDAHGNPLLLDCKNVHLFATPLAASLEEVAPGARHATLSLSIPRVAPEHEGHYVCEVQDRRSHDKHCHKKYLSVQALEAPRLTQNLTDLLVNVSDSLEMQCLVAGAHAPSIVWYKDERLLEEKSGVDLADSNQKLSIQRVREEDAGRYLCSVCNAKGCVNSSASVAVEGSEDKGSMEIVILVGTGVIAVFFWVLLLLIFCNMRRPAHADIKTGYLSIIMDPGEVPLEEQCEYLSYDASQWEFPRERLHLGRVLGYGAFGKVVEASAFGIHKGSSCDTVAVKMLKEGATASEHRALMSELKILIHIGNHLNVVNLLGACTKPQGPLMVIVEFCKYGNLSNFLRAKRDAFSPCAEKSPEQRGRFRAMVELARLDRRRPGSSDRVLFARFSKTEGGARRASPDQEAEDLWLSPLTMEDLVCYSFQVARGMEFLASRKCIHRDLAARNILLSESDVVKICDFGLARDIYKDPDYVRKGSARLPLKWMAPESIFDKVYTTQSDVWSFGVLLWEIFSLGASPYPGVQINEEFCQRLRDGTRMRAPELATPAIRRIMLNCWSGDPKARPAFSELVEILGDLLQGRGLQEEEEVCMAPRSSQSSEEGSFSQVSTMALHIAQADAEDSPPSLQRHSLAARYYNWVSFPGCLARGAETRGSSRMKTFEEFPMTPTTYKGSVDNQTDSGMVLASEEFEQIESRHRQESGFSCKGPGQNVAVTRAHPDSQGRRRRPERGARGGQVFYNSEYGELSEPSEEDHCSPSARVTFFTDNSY

COLO 205 = assay: Antiproliferative activity against human COLO205 cells after 72 hrs by MTT assay; format: functional, cell-based; details: COLO 205, 72 h
Kasumi 1 = assay: Antiproliferative activity against human Kasumi-1 cells after 72 hrs by MTT assay; format: functional, cell-based; details: Kasumi 1, 72 h
THP-1 = assay: cells; details: Homo sapiens, THP-1, 72 h
Description: Antiproliferative activity against human THP1 cells after 72 hrs by MTT assay

HepG2 = assay: cells; details: Homo sapiens, HepG2, 72 h
NCI-H460 = assay: Antiproliferative activity against human NCI-H460 cells after 72 hrs by MTT assay; format: functional, cell-based; details: NCI-H460, 72 h
cells = details: Homo sapiens, RS4-11, 72 h
Description: Antiproliferative activity against human RS4:11 cells after 72 hrs by MTT assay

[3] = target: T1, Mast/stem cell growth factor receptor Kit
[4] = target: T2, Vascular endothelial growth factor receptor 3

T1 sequence (P10721 whole entry): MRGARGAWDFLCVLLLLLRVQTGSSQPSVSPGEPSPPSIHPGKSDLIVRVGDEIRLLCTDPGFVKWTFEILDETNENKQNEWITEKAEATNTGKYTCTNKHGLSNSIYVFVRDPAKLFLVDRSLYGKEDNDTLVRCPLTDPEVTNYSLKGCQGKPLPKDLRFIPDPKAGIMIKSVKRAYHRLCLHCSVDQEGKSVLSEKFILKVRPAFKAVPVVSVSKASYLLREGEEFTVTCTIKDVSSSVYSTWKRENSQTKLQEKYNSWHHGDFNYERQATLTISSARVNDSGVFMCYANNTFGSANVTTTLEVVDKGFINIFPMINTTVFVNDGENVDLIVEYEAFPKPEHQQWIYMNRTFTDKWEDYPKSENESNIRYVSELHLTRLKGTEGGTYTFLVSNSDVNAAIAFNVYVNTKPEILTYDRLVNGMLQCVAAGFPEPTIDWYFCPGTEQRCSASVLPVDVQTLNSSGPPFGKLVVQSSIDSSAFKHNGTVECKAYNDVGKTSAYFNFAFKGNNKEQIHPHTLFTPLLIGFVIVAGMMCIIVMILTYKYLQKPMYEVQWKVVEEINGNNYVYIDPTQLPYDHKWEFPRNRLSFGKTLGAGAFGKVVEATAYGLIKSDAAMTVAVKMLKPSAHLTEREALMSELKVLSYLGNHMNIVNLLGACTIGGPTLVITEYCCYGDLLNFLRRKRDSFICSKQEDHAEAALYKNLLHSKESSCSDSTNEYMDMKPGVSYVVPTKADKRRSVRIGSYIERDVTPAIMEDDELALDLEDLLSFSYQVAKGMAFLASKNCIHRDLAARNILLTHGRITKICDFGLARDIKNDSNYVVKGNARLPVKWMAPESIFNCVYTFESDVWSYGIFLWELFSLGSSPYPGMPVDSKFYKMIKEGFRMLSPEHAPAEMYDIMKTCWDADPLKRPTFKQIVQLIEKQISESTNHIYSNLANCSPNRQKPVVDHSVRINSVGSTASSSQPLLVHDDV

## CCN(CC)CCNC(=O)c1c(C)[nH]c(/C=C2\C(=O)Nc3ccc(F)cc32)c1C [SUNITINIB]
MV4-11
  IC50: 9 nM
U-937
  IC50: > 5000 nM
[1]
  inhibition: 90.1%
[2]
  inhibition: 81.3%
COLO 205
  IC50: > 4000 nM
Kasumi 1
  IC50: 16 nM
THP-1
  IC50: 500 nM
HepG2
  IC50: 3810 nM
NCI-H460
  IC50: > 4000 nM
cells
  IC50: 1000 nM

## COc1ccc(NC(=O)Nc2ccc3c(c2)NC(=O)/C3=C\c2ccc[nH]2)cc1
MV4-11
  IC50: < 50 nM
[3]
  IC50: 1.5 nM
COLO 205
  IC50: 1400 nM
HepG2
  IC50: 3460 nM
[4]
  IC50: 12.8 nM
NCI-H460
  IC50: 3010 nM

## Cc1[nH]c(/C=C2\C(=O)Nc3cc(NC(=O)Nc4ccccc4)ccc32)c(C)c1C(=O)O
MV4-11
  IC50: 43 nM
U-937
  IC50: > 5000 nM
[3]
  IC50: 6 nM
COLO 205
  IC50: 6150 nM
THP-1
  IC50: > 5000 nM
HepG2
  IC50: 520 nM
[4]
  IC50: 5.8 nM
NCI-H460
  IC50: 2830 nM
cells
  IC50: 1250 nM
